Assay results from US10377694B2, “Bi-aromatic propynyl compounds, pharmaceutical and cosmetic compositions containing them and uses thereof” (GALDERMA RESEARCH & DEVELOPMENT, priority 2016, dated 2019).

What was measured:
Assay in all cases: Transactivation test (apparent Kd by Schild regression versus reference antagonist), luciferase reporter in HeLa cells
Type in all cases: cell-based
RAR alpha = biological target: T1, RAR alpha (Homo sapiens, UniProt P10276); details: HeLa stable transfectants ERE-βGlob-Luc-SV-Neo and RAR alpha ER-DBD-puro, 18 hours incubation, read-out: RAR alpha Kdapp
T1 sequence (P10276 183-417 limits assumed): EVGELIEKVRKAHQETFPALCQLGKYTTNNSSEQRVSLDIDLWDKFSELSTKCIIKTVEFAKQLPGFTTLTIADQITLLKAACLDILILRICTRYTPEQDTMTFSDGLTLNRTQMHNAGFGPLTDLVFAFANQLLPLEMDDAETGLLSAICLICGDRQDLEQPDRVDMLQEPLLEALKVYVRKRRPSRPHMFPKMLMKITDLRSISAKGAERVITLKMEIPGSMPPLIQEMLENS
Experimental: (§1) Activation of receptors by an agonist (activator) in HeLa cells leads to the expression of a reporter gene, luciferase, which generates light in the presence of a substrate. Therefore the activation of receptors can be measured by quantifying the luminescence produced after incubation of the cells in the presence of a reference antagonist. The activator products displace the antagonist from its site, thus permitting the receptor to be activated. The activity is measured by quantifying the increase in light produced. This measurement determines the activating activity of the useful compound in the invention.
(§2) In this study, a constant is determined that represents the affinity of the molecule for the receptor. This value can fluctuate according to the basal activity and expression of the receptor; it is designated apparent Kd (KdApp).
(§3) To determine this constant, cross curves are created of the product to be tested (4′-(3-hydroxy-propyl)-3′-(5,5,8,8-tetramethyl-5,6,7,8-tetrahydro-naphthalen-2-yl)-biphenyl-4-carboxylic acid and 4′-(2,3-dihydroxy-propyl)-3′-(5,5,8,8-tetramethyl-5,6,7,8-tetrahydro-naphtalen-2-yl)-biphenyl-4-carboxylic) acid versus a reference antagonist also called reference ligand, 4-(5,5-dimethyl-8-p-tolyl-5,6-dihydro-naphthalen-2-ylethynyl)-benzoic acid. The product to be tested is used at 10 concentrations and the reference antagonist at 7 concentrations. In each well (of a 96-well plate), the cells are in contact with one concentration of the product to be tested and one concentration of the reference antagonist.
(§4) Full agonist controls, also called 100% controls, (4-[2-(5,5,8,8 tetramethyl-5,6,7,8 tetrahydronaphthalene-2-yl)propenyl]-benzoic acid) and inverse agonist controls, also called 0% controls, (4-{(E)-3-[4-(4-tert-butyl-phenyl)-5,5,8,8-tetramethyl-5,6,7,8-tetrahydro-naphthalen-2-yl]-3-oxo-propenyl}-benzoic acid) are also measured.
(§5) These cross curves allow determining the AC50 (concentration at which 50% activation of the receptor is observed) of the reference ligand at different concentrations of the product to be tested. These AC50s are used to calculate the Schild regression by plotting a line conforming to the Schild equation (“Quantitation in receptor pharmacology” Terry P. Kenakin, Receptors and Channels, 2001, 7, 371-385).
(§6) In the case of an agonist, the AC50 is calculated by plotting the curve of the product at the concentration of the reference ligand giving 80% activation. The percentage of activation that corresponds to the maximum level of activity obtained is also measured.
(§7) The HeLa cell lines used are stable transfectants containing the plasmids ERE-βGlob-Luc-SV-Neo (reporter gene) and RAR (α, β, γ) ER-DBD-puro. These cells are inoculated onto 96-well plates in an amount of 10,000 cells per well in 100 μl DMEM medium with no phenol red and supplemented with 10% delipidated fetal bovine serum. The plates are then incubated at 37° C., 7% CO2 for 4 hours.
(§8) The different dilutions of the product to be tested, the reference ligand (4-(5,5-dimethyl-8-p-tolyl-5,6-dihydro-naphthalen-2-ylethynyl)-benzoic acid), the 100% control (100 nM 4-[2-(5,5,8,8 tetramethyl-5,6,7,8 tetrahydronaphthalene-2-yl)propenyl]-benzoic acid) and the 0% control (500 nM 4-{(E)-3-[4-(4-tert-butyl-phenyl)-5,5,8,8-tetramethyl-5,6,7,8-tetrahydro-naphthalen-2-yl]-3-oxo-propenyl}-benzoic acid) are added in an amount of 5 μl per well. The plates are then incubated 18 hours at 37° C., 7% CO2.
(§9) The culture medium is removed by turning over and 100 μl of a 1:1 PBS (phosphate buffer solution)/luciferin mixture is added to each well. After 5 minutes, the plates are read by the luminescence reader.

RAR beta = biological target: T2, RAR beta (Homo sapiens, UniProt P10826); details: HeLa stable transfectants ERE-βGlob-Luc-SV-Neo and RAR beta ER-DBD-puro, 18 hours incubation, read-out: RAR beta Kdapp
T2 sequence (P10826 183-417 limits assumed): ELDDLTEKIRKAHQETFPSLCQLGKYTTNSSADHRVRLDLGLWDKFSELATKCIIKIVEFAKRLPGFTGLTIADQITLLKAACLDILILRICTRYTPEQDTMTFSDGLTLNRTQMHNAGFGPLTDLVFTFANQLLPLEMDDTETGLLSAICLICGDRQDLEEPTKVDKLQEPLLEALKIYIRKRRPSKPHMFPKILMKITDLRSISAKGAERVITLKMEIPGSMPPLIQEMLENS
Experimental: as §1, §2, §3, §4, §5, §6, §7, §8, §9

RAR gamma = biological target: T3, RAR gamma (Homo sapiens, UniProt P13631); details: HeLa stable transfectants ERE-βGlob-Luc-SV-Neo and RAR gamma ER-DBD-puro, 18 hours incubation, read-out: RAR gamma Kdapp
T3 sequence (P13631 185-454 limits assumed): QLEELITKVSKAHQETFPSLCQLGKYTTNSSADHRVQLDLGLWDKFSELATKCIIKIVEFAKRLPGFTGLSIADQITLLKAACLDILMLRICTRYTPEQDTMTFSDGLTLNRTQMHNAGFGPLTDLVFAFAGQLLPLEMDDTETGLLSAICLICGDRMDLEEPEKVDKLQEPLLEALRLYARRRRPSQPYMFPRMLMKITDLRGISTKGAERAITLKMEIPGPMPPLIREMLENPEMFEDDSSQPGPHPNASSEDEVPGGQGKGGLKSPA
Experimental: as §1, §2, §3, §4, §5, §6, §7, §8, §9

Compound	Kd (RAR alpha) [nM]	Kd (RAR beta) [nM]	Kd (RAR gamma) [nM]
CC1(C)CCC(C)(C)c2c(OCC3CC3)cc(C#Cc3ccc(C(=O)O)cn3)cc21 [Compound 2]	30	2	4
CC1(C)CCC(C)(C)c2c(O)cc(C#Cc3ccc(C(=O)O)c(O)c3)cc21 [Compound 1]	120	4	4
